Measured values as given in patent US20220151292A1, “NICOTINE POUCH COMPOSITION” (NCP NextGen A/S, priority 2020, published 2022).

Columns and labels:
Type in all cases: physicochemical
[1] = Release experiment: nicotine released from NPR (16%) in water with varying salts (CaCl2, NaCl) and equivalents (Example 6A); conditions: NPR (16%) in 900 mL water, nicotine 28 mg/L, 25 degrees Celsius, 100 rpm, HPLC
[2] = Release experiment: nicotine released from NPR (16%) in water with varying equivalents of CaCl2 (Example 6B); conditions: nicotine 28 mg/L, 25 degrees Celsius, 100 rpm, HPLC
Method: (§1) The release experiment was performed by adding NPR (16%) and varying equivalent of CaCl2 to a volume of water corresponding to a nicotine concentration of 28 mg/L. The equivalents of CaCl2 are relative to nicotine. The temperature of the water was 25 degrees Celsius throughout the experiment and stirring of 100 rpm was applied throughout the experiment. pH was measured at experiment start and end. The pH was in all experiments below 7.0 at both the start and end of the experiment.
(§2) A relative low nicotine concentration is used in order to reduce the impact of equilibrium on both the release rate and effective release of nicotine from the ion-exchange resin.
(§3) Samples were taken out at varying timepoints and analyzed for nicotine content using standard HPLC. The result is presented as percentage of nicotine released.

[3] = Release experiment: nicotine released from nicotine premixes of varying nicotine content with 1 equivalent of CaCl2 (Example 6D); conditions: nicotine premix, 1 equivalent CaCl2, water, nicotine 28 mg/L, 25 degrees Celsius, 150 rpm, HPLC
Method: The release experiment was performed by adding nicotine premix having varying content of nicotine and 1 equivalent of CaCl2 to a volume of water, whereby a corresponding nicotine concentration of 28 mg/L is obtained. The equivalent of CaCl2 is relative to nicotine. The temperature of the water was 25 degrees Celsius throughout the experiment and stirring of 150 rpm was applied throughout the experiment. pH was measured at experiment start and end. The pH was in all experiments below 7.0 at both the start and end of the experiment.
as §2, §3

[4] = Release experiment: nicotine released from NPR (16%) in water with varying equivalents of MgCl2 (Example 6C); conditions: nicotine 28 mg/L, 25 degrees Celsius, 100 rpm, HPLC
Method: as §1, with “varying equivalents” for “varying equivalent”, “of MgCl2” for “of CaCl2”
as §2, §3

[5] = Release experiment: nicotine released from NPR (16%) in water with 1 equivalent of AlCl3 (Example 6E); conditions: 1 equivalent AlCl3, water, nicotine 28 mg/L, 25 degrees Celsius, 150 rpm, HPLC
Method: as §1, with “1” for “varying”, “AlCl3” for “CaCl2”, “equivalents” for “equivalents of CaCl2”, “150” for “100”
as §2, §3

[Cl-].[Na+] [NaCl, reference compound]
effect of the salt on release of nicotine from NPR [1]: much lower effect on the release of nicotine

[Ca+2].[Cl-].[Cl-] [CaCl2]
effect of the salt on release of nicotine from NPR [1]: significantly increases the release of nicotine | effect of CaCl2 on release of nicotine from NPR [2]: significantly increases the release of nicotine | effect of CaCl2 on release of nicotine from premixes [3]: significantly increases the release of nicotine

[Cl-].[Cl-].[Mg+2] [MgCl2]
effect of MgCl2 on release of nicotine from NPR [4]: significantly increases the release of nicotine

[Cl][Al]([Cl])[Cl] [AlCl3]
effect of AlCl3 on release of nicotine from NPR [5]: significantly increases the release of nicotine
